Where a name gives a salt, the structure may show the parent alone.
Key:
5-HT4 receptor [1] = biological target: 5-HT4 receptor (Rattus norvegicus, UniProt Q62758); test: cell-based; details: rat esophagus TMM contracted with carbachol (3 μM), 37° C., cumulative addition; read-out: 5-HT4 Agonism (Rat TMM) In Vitro Assay: EC50 values
Procedure: (§1) The 5-HT4 agonist activity was determined in the in vitro rat tunica muscularis mucosae (TMM) assay described herein. (Baxter et al., Naunyn Schmied Arch. Pharmacol, 1991, 343, 439). […] One with skill in the art could determine the activity of the compounds of the present invention using the methodology of these assays, described herein, without undue experimentation.
Agonist activity was determined utilizing relaxation of carbachol-contracted rat tunica muscularis mucosae (TMM). One 2 cm segment of intrathoracic esophagus proximal to the diaphragm was removed from male rats, weighing approximately 300 gm, and the outer muscle layers removed. The inner tunica muscularis mucosa was mounted under 0.2-0.3 g of tension in a tissue bath containing oxygenated Tyrode's solution at 37° C. […] Following a 30 min equilibrium period, tissues were isometrically contracted with carbachol (3 μM) to obtain a tonic contraction. A stable plateau was obtained within 20 min when test compound was added cumulatively to relax the muscle strip. EC50 values were obtained for each compound in tissues from 5 rats.

5-HT4 receptor [2] = details: Dumuis et al. 1989, mouse embryonic colliculi neurons; cited from earlier work
5-HT4 receptors = details: Craig and Clarke; cited from earlier work
myenteric neurons = details: Nemeth and Gullikson 1989; cited from earlier work
dogs = details: cited from earlier work; for antroduodenal motility in dogs: Van Nueten et al. 1989
5-HT3 receptor = biological target: T1, 5-HT3 receptor (Rattus norvegicus, UniProt P35563); test: 5-HT3 radioligand receptor binding assay ([3H]-GR65630), rat brain cortex membranes
T1 construct: Brain cortices were obtained from male rats and a membrane fraction prepared by standard techniques; from tissue; host or cells: male rat brain cortex membranes
T1 sequence (P35563 24-483): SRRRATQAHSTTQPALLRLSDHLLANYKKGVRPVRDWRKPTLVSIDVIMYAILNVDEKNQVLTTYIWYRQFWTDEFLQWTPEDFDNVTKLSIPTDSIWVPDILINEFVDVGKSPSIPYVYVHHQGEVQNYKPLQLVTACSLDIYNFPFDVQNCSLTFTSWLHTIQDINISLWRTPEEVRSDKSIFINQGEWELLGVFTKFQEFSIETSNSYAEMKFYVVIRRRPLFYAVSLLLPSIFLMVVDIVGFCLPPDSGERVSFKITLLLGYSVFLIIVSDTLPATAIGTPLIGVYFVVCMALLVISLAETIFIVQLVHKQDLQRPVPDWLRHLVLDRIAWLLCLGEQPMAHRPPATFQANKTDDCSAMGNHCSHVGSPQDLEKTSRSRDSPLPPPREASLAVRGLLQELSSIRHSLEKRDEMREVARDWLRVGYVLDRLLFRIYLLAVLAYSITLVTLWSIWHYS
Procedure: as §1
Procedure: GR65630 binds to the 5-HT3 receptor. Brain cortices were obtained from male rats and a membrane fraction prepared by standard techniques. 0.04 mg of membrane prep was incubated with 0.2 nM [^3 H]-GR65630 for 66 minutes at 22° C. […] Membranes were filtered and washed 3 times and the filters were counted to determine [^3 H]-GR65630 specifically bound. [Kilpatrick GJ, Jones BJ and Tyers MB, Identification and Distribution of 5-HT3 Receptors in Rat Brain Using Radioligand Binding Assay, Nature, 330, 746-748 (1987)].

man [3] = details: Gore et al. 1990, man; cited from earlier work
gastric emptying [4] = details: Gidda et al. 1988; cited from earlier work
man [5] = details: Talley et al. 1989, man; cited from earlier work
[6] = system: guinea pig stomach muscle strips; details: cited from earlier work; for guinea pig stomach muscle strip contraction in vitro: Buchheit et al. 1985
gastric emptying [7] = details: Buchheit et al. 1985; cited from earlier work
GI tract = details: various animal models; cited from earlier work
5-HT3 = details: in vivo; cited from earlier work

Chain of 5-HT4 receptor (Rattus norvegicus, UniProt Q62758) (Q62758 whole entry): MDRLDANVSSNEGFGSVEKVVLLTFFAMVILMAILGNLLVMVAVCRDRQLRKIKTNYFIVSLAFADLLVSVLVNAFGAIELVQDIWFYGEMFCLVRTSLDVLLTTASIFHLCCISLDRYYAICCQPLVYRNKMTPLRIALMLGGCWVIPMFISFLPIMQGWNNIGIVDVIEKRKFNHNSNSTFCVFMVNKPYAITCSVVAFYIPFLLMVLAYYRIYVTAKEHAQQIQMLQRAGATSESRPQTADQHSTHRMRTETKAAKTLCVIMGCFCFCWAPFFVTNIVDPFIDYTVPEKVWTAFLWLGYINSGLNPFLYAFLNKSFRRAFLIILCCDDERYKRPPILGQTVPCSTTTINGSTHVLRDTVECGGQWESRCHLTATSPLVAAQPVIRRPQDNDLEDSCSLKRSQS

In the case of `CC1(C)C(=O)N(C(=O)NC[C@@H]2CCN3CCC[C@@H]23)c2ccccc21` (relative stereo) [Example 8, Exo-2,3-dihydro-3,3-dimethyl-N-[(hexahydro-1H-pyrrolizin-1S-yl)methyl]-2-oxo-1H-indole-1carboxamide, hydrate hydrochloride], the EC50 (5-HT4 receptor [1]) is reported as over 10 µM.
For `COc1cc(N)c(Cl)cc1C(=O)NC1CCN2CCCC1C2` (centres unmarked) [BRL-24924], the “prokinetic activity, correlation with agonist activity at 5-HT4 receptor” value (5-HT4 receptor [2]) is listed as “correlate with agonist activity”, the “peristaltic reflex evoked, receptor mechanism” value (5-HT4 receptors) is listed as “mediated through agonism at 5-HT4 receptors” and the “ability to depolarize myenteric neurons, relation to 5-HT3 antagonism” value (myenteric neurons) is listed as “unrelated to their properties of 5-HT3 antagonism”.
For `COc1cc(N)c(Cl)cc1C(=O)NC1CCN(CCCOc2ccc(F)cc2)CC1OC` (centres unmarked) [Cisapride], the “prokinetic activity, correlation with agonist activity at 5-HT4 receptor” value (5-HT4 receptor [2]) is given as “correlate with agonist activity”, the “antroduodenal motility in dogs” value (dogs) is given as “enhanced” and the “ability to depolarize myenteric neurons, relation to 5-HT3 antagonism” value (myenteric neurons) is given as “unrelated to their properties of 5-HT3 antagonism”.
Molecule `CN1[C@@H]2CC[C@H]1C[C@@H](NC(=O)N1C(=O)C(C)(C)c3ccccc31)C2` [Example 1, Endo-2,3-dihydro-3,3-dimethyl-N-(8-methyl-8-azabicyclo[3.2.1]octan-3-yl)-2-oxo-1H-indole-1-carboxamide, hydrochloride hydrate] has an EC50 (5-HT4 receptor [1]) of 1.21 µM and a Ki (5-HT3 receptor) of 0.004 µM.
With `CN1[C@@H]2CC[C@H]1C[C@@H](NC(=O)N1C(=O)C3(CC3)c3ccccc31)C2` [Example 2, Endo-1',2'-dihydro-N-(8-methyl-8-azabicyclo[3.2.1 octan-3-yl)-2'-oxo-spiro[cyclopropane-1,3'-(3'H)-indole]-1'-carboxamide, hydrate hydrochloride] the EC50 (5-HT4 receptor [1]) was 0.79 µM and the Ki (5-HT3 receptor) was 0.0041 µM.
Molecule `O=C(N[C@@H]1[C@@H]2CC3C[C@H]1CN(C3)C2)N1C(=O)C2(CC2)c2ccccc21` [Example 3, Anti-N-(1-azatricyclo[3.3.1.1^3,7]decan-4-yl)-2'-oxo-spiro[cyclopropane-1,3'-[3'H]indole]-1'(2'H)-carboxamide, monohydrochloride] has an EC50 (5-HT4 receptor [1]) of 2.22 µM.
Molecule `O=C(N[C@H]1[C@@H]2CC3C[C@H]1CN(C3)C2)N1C(=O)C2(CC2)c2ccccc21` [Example 4, Syn-N-(1-azatricyclo[3.3.1.1^3,7]decan-4-yl)-2'-oxo-spiro[cyclopropane-1,3'-[3'H]indole]-1'(2'H)-carboxamide, monohydrochloride] has an EC50 (5-HT4 receptor [1]) of 2.53 µM.
With `O=C(NCC12CCN(CC1)CC2)N1C(=O)C2(CC2)c2ccccc21` [Example 5, N-(1-azabicyclo[2.2.2]octan-4-ylmethyl)-2'-oxo-spiro[cyclopropane-1,3'-[3'H]indole]-1'(2'H)-carboxamide, monohydrochloride] the EC50 (5-HT4 receptor [1]) was over 10 µM.
In the case of `O=C(NCC12CCCN1CCC2)N1C(=O)C2(CC2)c2ccccc21` [Example 6, 2'-oxo-N-[(hexahydro-1H-pyrrolizin-7a(5H)-yl)-methyl]spiro[cyclopropane-1,3'-[3'H]indole]1'(2'H)carboxamide, monohydrochloride], the EC50 (5-HT4 receptor [1]) is reported as over 10 µM.
For `O=C(NCCC12CCCN1CCC2)N1C(=O)C2(CC2)c2ccccc21` [Example 7, 2'-oxo-N-[2-(hexahydro-1H-pyrrolizin-7a(5H)yl)ethyl]spiro[cyclopropane-1,3'-[3'H]indole-1'(2'H)-carboxamide, monohydrochloride], the EC50 (5-HT4 receptor [1]) was 7.92 µM.
In the case of `Cc1nccn1CC1CCc2c(c3ccccc3n2C)C1=O` (centres unmarked) [GR38032], the GI transit (man [3]) is listed as “failed to accelerate”, the “colonic transit in man” value (man [3]) is listed as “slowed” and the gastric emptying (gastric emptying [4]) is listed as “enhanced”. The “effect on GI transit in man (conclusion)” value (man [5]) was “does not have a major effect on GI transit in man”, the mouth-to-cecum transit times (man [5]) was “did not alter” and the “small intestinal transit times” value (man [5]) was “did not alter”.
For `Cc1[nH]cnc1CCC(=O)c1cn(C)c2ccccc12` [GR65630], the Bmax (5-HT3 receptor; [3H]-GR65630 radioligand, rat brain cortex membranes) was 154 fmol/mg protein and the “% Specific Binding” value (5-HT3 receptor; [3H]-GR65630 radioligand, non-specific binding with 1 uM ICS 205-930) was 70%.
For `CN1[C@@H]2CC[C@H]1C[C@@H](OC(=O)c1c[nH]c3ccccc13)C2` [ICS 205-930], the “guinea pig stomach muscle strip contraction in vitro” value [6] is listed as “enhanced”, the “effect on responses to cisapride when coadministered” value (dogs; Van Nueten et al. 1989, coadministered with cisapride) is listed as “did not affect” and the “antroduodenal motility in dogs” value (dogs) is listed as “did not”. The “gastric emptying rates in vivo” value (gastric emptying [7]) was “increases” and the gastric emptying (gastric emptying [4]) was “enhanced”.
For `CN1[C@@H]2CC[C@H]1C[C@@H](OC(=O)c1cc(Cl)cc(Cl)c1)C2` [MDL 72222], the “guinea pig stomach muscle strip contraction in vitro” value [6] is listed as “enhanced” and the “gastric emptying rates in vivo” value (gastric emptying [7]) is listed as “increases”.
In the case of `NCCc1c[nH]c2ccc(O)cc12` [Serotonin, 5-hydroxytryptamine], the “peristaltic reflex evoked, receptor mechanism” value (5-HT4 receptors) is listed as “mediated through agonism at 5-HT4 receptors” and the “peristalsis in the GI tract” value (GI tract) is listed as “promote peristalsis”.
In the case of `CCN(CC)CCNC(=O)c1cc(Cl)c(N)cc1OC` [metoclopramide], the “guinea pig stomach muscle strip contraction in vitro” value [6] is given as “enhanced”, the “electrical-field stimulated contractions in guinea pig stomach strips” value ([6]; Gunning and Naylor 1985) is given as “enhanced” and the “gastric emptying rates in vivo” value (gastric emptying [7]) is given as “increases”. The “5-HT3-mediated Bezold Jarisch reflex” value (5-HT3) was “blocks”.
In the case of `COc1cc(N)c(Cl)cc1C(=O)NC1CN2CCC1CC2` (centres unmarked) [zacopride], the gastric emptying (gastric emptying [4]) is listed as “enhanced”.
